Test results from patent EP0561850B1, “7-SUBSTITUTED-6-FLUORO-1,4-DIHYDRO-4-OXO-QUINOLINE-3-CARBOXYLIC ACID COMPOUNDS USEFUL AS ANTIBACTERIAL AGENTS” (priority 1990, dated 1992).
Converted amounts (≈) assume the structure as drawn.

Experiments:
[1] = test system: Quinoline Resistant MRSAs (QRMRSAs); test: In vitro antimicrobial activity against quinoline resistant MRSA; assay type: cell-based; settings: Staphylococcus aureus; QRMRSA (8 C.I.), C.I. = Clinical Isolates
Procedure: (§1) For aerobic microorganisms, a cation supplemented Mueller Hinton Broth (BBL) was used whereas the Anaerobe Broth MIC (Difco) was used for anaerobic microorganisms. An agar Dilution method was employed for certain aerobic microorganisms using Mueller Hinton II Agar (BBL) and a Cathra multipoint inoculating device which delivered 10^4 cfu/spot of the inoculum on the agar surface. MICs were read after 16-18 hours and 48 hours of incubation in case of microbes growing aerobically and anaerobically respectively.

[2] = test system: Methicillin Resistant S. aureus (MRSAs); test: In vitro antimicrobial activity against methicillin resistant S. aureus; assay type: cell-based; settings: Staphylococcus aureus; MRSA (6 C.I.), C.I. = Clinical Isolates
Procedure: as §1

[3] = test system: Fusobacterium mortiferum AN-13; test: In vitro antimicrobial activity against anaerobes, broth microdilution; assay type: cell-based; settings: AN13; Fusobacterium mortiferum AN-13; anaerobes; read after 48 hours; read-out: MIC
Source text: as §1, with “The compounds of the invention display antibacterial activity when tested by the broth microdilution method as described in the NCCLS publications M7-A, M11-A and M17-P of the year 1985. For” for “For”
(§2) By use of the above method, the following minimum inhibitory concentration values (MICs in µg/ml) were obtained: Table 1, against microbes growing aerobically; Table 2, against microbes growing anaerobically; Table 3, against methicillin resistant Staphylococcus aureus and quinoline resistant-methicillin resistant Staphylococcus aureus.

[4] = test system: Streptococcus intermedius AN-19; test: as above; assay type: cell-based; settings: AN19; Streptococcus intermedius AN-19; anaerobes; read after 48 hours; read-out: MIC
Source text: as §1, with “The compounds of the invention display antibacterial activity when tested by the broth microdilution method as described in the NCCLS publications M7-A, M11-A and M17-P of the year 1985. For” for “For”
as §2

[5] = test system: Propionobacterium acne AN-17; test: as above; assay type: cell-based; settings: Propionobacterium acne AN-17; anaerobes; read after 48 hours; read-out: MIC
Source text: as §1, with “The compounds of the invention display antibacterial activity when tested by the broth microdilution method as described in the NCCLS publications M7-A, M11-A and M17-P of the year 1985. For” for “For”
as §2

[6] = test system: Peptostreptococcus asaccharolyticus AN-16; test: as above; assay type: cell-based; settings: Peptoniphilus asaccharolyticus, AN16; Peptostreptococcus asaccharolyticus AN-16; anaerobes; read after 48 hours; read-out: MIC
Source text: as §1, with “The compounds of the invention display antibacterial activity when tested by the broth microdilution method as described in the NCCLS publications M7-A, M11-A and M17-P of the year 1985. For” for “For”
as §2

Bacteroides fagilis AN-2 = test: as above; assay type: cell-based; settings: AN2; Bacteroides fagilis AN-2; anaerobes; read after 48 hours; read-out: MIC
Source text: as §1, with “The compounds of the invention display antibacterial activity when tested by the broth microdilution method as described in the NCCLS publications M7-A, M11-A and M17-P of the year 1985. For” for “For”
as §2

[7] = test system: Staphylococcus aureus S-127; test: In vitro antimicrobial activity against aerobes, broth microdilution (NCCLS 1985); assay type: cell-based; settings: S127, read after 16-18 hours
Procedure: as §1

Sa 127M = test: Microbroth dilution (MHB) method, NCCLS M7-A2; assay type: cell-based, Staphylococcus aureus; settings: inoculum 5 x 10^5 cfu/ml, 35 °C/18 hr
Procedure: (§3) The test organisms were obtained from ATCC and clinical laboratories. The 96-well microtitre plates containing […] of serially diluted test compounds in Mueller Hinton Broth (MHB) (conc. range 64-0.03 µg/ml) were inoculated with […] of bacterial suspension in MHB so that an inoculum size of 5 x 10^5 cfu/ml was achieved.
(§4) EC. (S- 63): Eschericia coli Ecl. (S- 130): Enterobacter cloacae Pa. (S- 67): Pseudomonas aeruginosa Kp. (S- 80): Klebsiella pneumoniae Pr.
(§5) Microbroth Dilution (MHB) method; Inoculum, 5 x 10^5 cfu/ml; Incubation 35 °C/18 hr

[8] = test system: Staphylococcus aureus S-127; test: Microbroth dilution (MHB) method, NCCLS M7-A2; assay type: cell-based; settings: Sa S-127, inoculum 5 x 10^5 cfu/ml, 35 °C/18 hr
Procedure: as §3, §4, §5

[9] = test system: Enterobacter cloacae S-130; test: Microbroth dilution (MHB) method, NCCLS M7-A2; assay type: cell-based; settings: Ecl S-130, inoculum 5 x 10^5 cfu/ml, 35 °C/18 hr
Procedure: as §3, §4, §5

[10] = test system: Providencia rettgeri S-121; test: Microbroth dilution (MHB) method, NCCLS M7-A2; assay type: cell-based; settings: Pr S-121, inoculum 5 x 10^5 cfu/ml, 35 °C/18 hr
Procedure: as §3, §4, §5

Eschericia coli S-63 = test: Microbroth dilution (MHB) method, NCCLS M7-A2; assay type: cell-based; settings: Ec S-63, inoculum 5 x 10^5 cfu/ml, 35 °C/18 hr
Procedure: as §3, §4, §5

[11] = test system: Klebsiella pneumoniae S-80; test: Microbroth dilution (MHB) method, NCCLS M7-A2; assay type: cell-based; settings: Kp S-80; MHB; inoculum 5 x 10^5 cfu/ml; 35 °C/18 hr
Procedure: as §3, §4, §5

[12] = test system: Pseudomonas aeruginosa S-67; test: Microbroth dilution (MHB) method, NCCLS M7-A2; assay type: cell-based; settings: Pa S-67; MHB; inoculum 5 x 10^5 cfu/ml; 35 °C/18 hr
Procedure: as §3, §4, §5

Compound | MIC [1] [µg/mL] | MIC [2] [µg/mL] | MIC [3] [µg/mL] | MIC [4] [µg/mL] | MIC [5] [µg/mL] | MIC [6] [µg/mL] | MIC (Bacteroides fagilis AN-2) [µg/mL] | MIC [7] [µg/mL] | other results
Nc1c(F)c(N2CCC(n3ccnn3)C2)c(F)c2c1c(=O)c(C(=O)O)cn2C1CC1 (stereo not drawn) [Example 11, 5-Amino-1-cyclopropyl-6,8-difluoro-7-[3-(1,2,3-triazol-1-yl)-pyrrolidin-1-yl]-1,4-dihydro-4-oxo-quinoline-3-carboxylic acid] | 0.5 to 2 (≈ 1.2 to 4.8 µM) | 0.004 to 0.008 (≈ 0.00961 to 0.0192 µM) | 0.06 (≈ 0.144 µM) | 0.06 (≈ 0.144 µM) | ≤ 0.03 | 0.06 (≈ 0.144 µM) | 1 (≈ 2.4 µM) |  | 
Nc1c(F)c(N2CC[C@H](n3ccnn3)C2)c(F)c2c1c(=O)c(C(=O)O)cn2C1CC1 [Example 12, 5-Amino-1-cyclopropyl-6,8-difluoro-7-[3S-(1,2,3-triazol-1-yl)-pyrrolidin-1-yl]-1,4-dihydro-4-oxo-quinoline-3-carboxylic acid] | 0.5 to 2 (≈ 1.2 to 4.8 µM) | 0.004 to 0.008 (≈ 0.00961 to 0.0192 µM) | 0.06 (≈ 0.144 µM) | 0.12 (≈ 0.288 µM) | 0.06 (≈ 0.144 µM) | 0.06 (≈ 0.144 µM) | 1 (≈ 2.4 µM) | 0.008 (≈ 0.0192 µM) | 
Nc1c(F)c(N2CC[C@@H](n3ccnn3)C2)c(F)c2c1c(=O)c(C(=O)O)cn2C1CC1 [Example 13, 5-Amino-1-cyclopropyl-6,8-difluoro-7-[3R-(1,2,3-triazol-1-yl)-pyrrolidin-1-yl)-1,4-dihydro-4-oxo-quinoline-3-carboxylic acid] |  |  |  |  |  |  |  | 0.008 (≈ 0.0192 µM) | 
Nc1c(F)c(N2CCC(n3ccnn3)C2)c(F)c2c1c(=O)c(C(=O)O)cn2-c1ccc(F)cc1F (stereo not drawn) [Example 14, 5-Amino-1-(2,4-difluorophenyl)-6,8-difluoro-7-[3-(1,2,3-triazol-1-yl)pyrrolidin-1-yl]-1,4-dihydro-4-oxo-quinoline-3 carboxylic acid] | 1 to 8 (≈ 2.05 to 16.4 µM) | 0.008 to 0.03 (≈ 0.0164 to 0.0614 µM) | 2 (≈ 4.09 µM) | 0.06 (≈ 0.123 µM) | 0.06 (≈ 0.123 µM) | 0.12 (≈ 0.246 µM) | > 64 | ≤ 0.015 | 
Nc1c(F)c(N2CC[C@H](n3ccnn3)C2)c(F)c2c1c(=O)c(C(=O)O)cn2-c1ccc(F)cc1F [Example 15] | 1 to 16 (≈ 2.05 to 32.8 µM) | 0.008 to 0.015 (≈ 0.0164 to 0.0307 µM) |  |  |  |  |  | 0.015 (≈ 0.0307 µM) | 
Nc1c(F)c(N2CC[C@@H](n3ccnn3)C2)c(F)c2c1c(=O)c(C(=O)O)cn2-c1ccc(F)cc1F [Example 16, 5-Amino-1-(2,4-difluorophenyl)-6,8-difluoro-7-[3R-(1,2,3-triazol-1-yl)-pyrrolidin-1-yl]-1,4-dihydro-4-oxo-quinoline-3-carboxylic acid] |  |  |  |  |  |  |  | 0.015 (≈ 0.0307 µM) | 
C[C@@H]1CN(c2c(F)c(N)c3c(=O)c(C(=O)O)cn(C4CC4)c3c2F)C[C@H](C)N1 [Sparfloxacin, reference compound] | 4 to 16 (≈ 10.2 to 40.8 µM) | 0.03 to 0.12 (≈ 0.0765 to 0.306 µM) | 0.5 (≈ 1.27 µM) | 0.5 (≈ 1.27 µM) | 1 (≈ 2.55 µM) | 4 (≈ 10.2 µM) | 2 (≈ 5.1 µM) | 0.06 (≈ 0.153 µM) | 
NC1CCN(c2nc3c(cc2F)c(=O)c(C(=O)O)cn3-c2ccc(F)cc2F)C1 (stereo not drawn) [Tosufloxacin, reference compound] | 2 to 16 (≈ 4.95 to 39.6 µM) | 0.015 to 0.03 (≈ 0.0371 to 0.0742 µM) |  |  |  |  |  |  | 
Norfloxacin - choline salt [MFLX-, reference compound] |  |  |  |  |  |  |  |  | MIC (Sa 127M): 16 µg/mL; MIC [8]: 2 µg/mL; MIC [9]: .25 µg/mL; MIC [10]: .12 µg/mL; MIC (Eschericia coli S-63): .06 µg/mL; MIC [11]: .25 µg/mL; MIC [12]: 1 µg/mL
